Experimental data as given in article PMC6270892, “Penostatin Derivatives, a Novel Kind of Protein Phosphatase 1B Inhibitors Isolated from Solid Cultures of the Entomogenous Fungus Isaria tenuipes” (Molecules, 2014).
Read-outs that look alike come from different tables or passages of the source. Each block holds one molecule with its values, some of them ahead of it.

What was measured:
PTP1B [1] = tested on: PTP1B; design: method as in PMID 20337577; details: cited from earlier work
PTP1B [2] = target: T1, PTP1B (Homo sapiens, UniProt P18031); assay: PTP1B inhibition assay (pNPP hydrolysis / Malachite Green); format: biochemical; details: for selectivity between PTP1B and LAR: PTP1B versus LAR, in words; for IC50: mean ± SD of three replicates
T1 sequence (P18031 1-435): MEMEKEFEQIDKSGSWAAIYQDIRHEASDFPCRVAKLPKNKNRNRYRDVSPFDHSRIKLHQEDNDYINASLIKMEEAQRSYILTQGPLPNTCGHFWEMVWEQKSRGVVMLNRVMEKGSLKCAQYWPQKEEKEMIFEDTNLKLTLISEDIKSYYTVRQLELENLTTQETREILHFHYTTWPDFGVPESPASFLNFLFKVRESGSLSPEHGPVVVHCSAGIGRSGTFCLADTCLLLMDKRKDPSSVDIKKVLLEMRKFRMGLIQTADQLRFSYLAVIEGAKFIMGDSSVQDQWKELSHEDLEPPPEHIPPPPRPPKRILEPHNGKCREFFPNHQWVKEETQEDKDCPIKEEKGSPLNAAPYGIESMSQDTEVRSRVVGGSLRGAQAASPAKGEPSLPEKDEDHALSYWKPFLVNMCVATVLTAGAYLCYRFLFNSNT
Method: PTP1B activity was measured as the rate of hydrolysis of p-nitrophenyl phosphate (pNPP) in a 96-well microtiter plate format. […] Inhibitors were added in DMSO at 100 times the final concentration. PTP1B activity was measured as the rate of inorganic phosphate released upon hydrolysis of the IR phosphopeptide, TRDIpYETDpYpYRK, using a Malachite Green method. The enzyme activity was estimated by measuring the absorbance at 405 nm with appropriate corrections. Each experiment was performed either in triplicate, and IC50 data were derived from three independent experiments.
(§1) Calculations. PTPase activities, based on a potassium phosphate standard curve, were expressed as nanomoles of phosphate released/min/mg protein. Inhibition of recombinant h-PTP1B by test compounds was calculated as percent of phosphatase control. A four-parameter nonlinear logistic regression of PTPase activities using SAS release 6.08, PROC NLIN, was used for determining IC50 values of the test compounds.

LAR = LAR (Homo sapiens, UniProt P10586); assay: LAR phosphatase inhibition assay; format: biochemical
Method: PTP1B activity was measured as the rate of hydrolysis of p-nitrophenyl phosphate (pNPP) in a 96-well microtiter plate format. Standard assays were conducted at room temperature in a total volume of 0.2 mL that contained HEPES buffer (50 mM, pH 7.2), NaCl (50 mM), EDTA (1 mM), DTT (1 mM), bovine serum albumin (1 mg/mL), pNPP (at various concentrations, Km) 1.4 (0.03 mM), and PTP1B (35 ng/mL). Sodium orthovanadate was used as the positive control. Inhibitors were added in DMSO at 100 times the final concentration. PTP1B activity was measured as the rate of inorganic phosphate released upon hydrolysis of the IR phosphopeptide, TRDIpYETDpYpYRK, using a Malachite Green method. The enzyme activity was estimated by measuring the absorbance at 405 nm with appropriate corrections. Each experiment was performed either in triplicate, and IC50 data were derived from three independent experiments.
Activities of LAR were measured as described above except that the HEPES buffer (50 mM) was at pH 6.8, and the enzyme was added at a concentration of 10 μg/mL. Activity of calcineurin (from Sigma Chemical Co.) was assayed using 4-methylumbelliferyl phosphate (0.8 mM) as a substrate in an assay mixture that contained Tris-HCl buffer (40 mM, pH 8.6), NaCl (100 mM), CaCl2 (0.5 mM), DTT (0.5 mM), bovine serum albumin (0.1 mg/mL), calmodulin (50 nM), and calcineurin (25 nM). Sodium orthovanadate was used as the positive control. Fluorescence at 450 nm was monitored with excitation at 400 nm. The color was allowed to develop at room temperature for 30 min, and the sample absorbances were determined at 650 nm using a plate reader (Molecular Devices, Sunnyvale, CA, USA). Each experiment was performed either in triplicate, and IC50 data were derived from three independent experiments.
as §1, with “compounds. The reported IC50 values show significant fit to the regression curve (p < 0.05).” for “compounds.”

[3] = tested at 50 μg/mL, read-out: LAR inhibition

LAR, sequence (P10586 30-1907, species assumed): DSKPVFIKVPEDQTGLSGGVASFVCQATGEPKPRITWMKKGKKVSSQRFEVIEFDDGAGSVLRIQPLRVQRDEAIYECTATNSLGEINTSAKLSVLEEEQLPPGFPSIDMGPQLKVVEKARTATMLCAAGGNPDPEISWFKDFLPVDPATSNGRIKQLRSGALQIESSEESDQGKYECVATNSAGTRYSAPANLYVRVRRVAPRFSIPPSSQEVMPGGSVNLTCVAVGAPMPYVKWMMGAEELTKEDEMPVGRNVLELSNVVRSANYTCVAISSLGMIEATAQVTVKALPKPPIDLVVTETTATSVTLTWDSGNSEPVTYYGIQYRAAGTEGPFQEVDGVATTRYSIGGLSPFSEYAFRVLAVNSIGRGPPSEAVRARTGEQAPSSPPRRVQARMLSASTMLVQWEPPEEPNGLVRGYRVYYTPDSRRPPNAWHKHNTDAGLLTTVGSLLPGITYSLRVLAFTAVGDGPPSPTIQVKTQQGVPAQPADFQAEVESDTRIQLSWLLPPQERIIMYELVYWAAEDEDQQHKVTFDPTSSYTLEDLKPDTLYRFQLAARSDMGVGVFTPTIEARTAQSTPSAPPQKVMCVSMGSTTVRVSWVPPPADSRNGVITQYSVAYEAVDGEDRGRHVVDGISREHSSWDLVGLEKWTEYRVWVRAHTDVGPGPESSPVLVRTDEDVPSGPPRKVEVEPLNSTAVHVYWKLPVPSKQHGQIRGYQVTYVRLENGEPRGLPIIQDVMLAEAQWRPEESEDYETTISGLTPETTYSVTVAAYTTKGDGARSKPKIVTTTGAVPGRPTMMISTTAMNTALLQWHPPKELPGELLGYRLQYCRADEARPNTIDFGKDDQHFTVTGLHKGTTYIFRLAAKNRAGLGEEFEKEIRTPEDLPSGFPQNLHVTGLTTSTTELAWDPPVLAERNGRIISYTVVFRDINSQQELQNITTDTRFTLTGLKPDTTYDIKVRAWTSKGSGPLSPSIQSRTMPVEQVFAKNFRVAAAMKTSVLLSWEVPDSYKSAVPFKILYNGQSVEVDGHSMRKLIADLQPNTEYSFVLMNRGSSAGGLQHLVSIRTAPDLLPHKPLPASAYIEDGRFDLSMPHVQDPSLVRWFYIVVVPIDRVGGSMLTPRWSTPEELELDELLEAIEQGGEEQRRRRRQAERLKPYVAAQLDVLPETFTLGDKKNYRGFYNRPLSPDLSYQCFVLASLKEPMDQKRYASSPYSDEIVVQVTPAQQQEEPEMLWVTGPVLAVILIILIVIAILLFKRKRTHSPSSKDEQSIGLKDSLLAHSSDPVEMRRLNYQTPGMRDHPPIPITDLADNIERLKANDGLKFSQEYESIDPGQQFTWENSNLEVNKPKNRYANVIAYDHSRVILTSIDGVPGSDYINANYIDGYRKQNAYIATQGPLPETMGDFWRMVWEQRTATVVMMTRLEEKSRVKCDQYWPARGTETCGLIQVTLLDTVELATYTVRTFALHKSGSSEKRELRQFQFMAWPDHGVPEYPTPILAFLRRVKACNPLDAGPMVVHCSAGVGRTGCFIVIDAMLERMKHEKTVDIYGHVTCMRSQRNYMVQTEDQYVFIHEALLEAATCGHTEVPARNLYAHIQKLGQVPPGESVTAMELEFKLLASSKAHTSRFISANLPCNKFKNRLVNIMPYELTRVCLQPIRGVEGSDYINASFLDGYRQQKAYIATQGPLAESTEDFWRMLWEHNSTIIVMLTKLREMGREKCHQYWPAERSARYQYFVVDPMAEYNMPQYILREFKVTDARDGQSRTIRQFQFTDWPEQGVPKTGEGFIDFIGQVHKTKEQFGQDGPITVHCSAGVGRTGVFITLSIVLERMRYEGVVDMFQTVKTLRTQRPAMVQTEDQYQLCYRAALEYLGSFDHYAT

Structure (SMILES): CCCCCCC/C=C/[C@@H]1O[C@H]2C(=O)C=C3C[C@H](O)C[C@H]3[C@@H]2C=C1C [Compound 3, penostatin A]
IC50 (PTP1B [2]): 15.9 ± 2.49 µM | IC50 (LAR; [3]): > 145 µM

Structure (SMILES): Cc1cc(-c2c3ccccc3c(Br)c3sc(C)c(C)c23)cc(C)c1O[C@H](Cc1ccccc1)C(=O)O [ertiprotafib]
IC50 (PTP1B [1]): 1.6 µM

Structure (SMILES): CCCCCCC/C=C/[C@@H]1O[C@H]2C(=O)C=C3C=CC[C@H]3[C@@H]2C=C1C [Compound 2, penostatin C]
selectivity between PTP1B and LAR (PTP1B [2]): significant selectivity | IC50 (PTP1B [2]): 0.37 ± 0.05 µM | IC50 (LAR; mean ± SD of three replicates, read-out: IC50 (μM) LAR): 53.3 ± 4.06 µM

Next, values leading:

selectivity between PTP1B and LAR (PTP1B [2]): significant selectivity | IC50 (PTP1B [2]): 12.5 ± 0.9 µM | IC50 (LAR; [3]): > 146 µM
Structure (SMILES): CCCCCCC/C=C/[C@@H]1O[C@@]2(O)C(=O)C=C3C=CC[C@H]3[C@@H]2C=C1C [Compound 1, penostatin J]

IC50 (PTP1B [2]): 33.7 ± 7.33 µM | IC50 (LAR; [3]): > 145 µM
Structure (SMILES): CCCCCCC/C=C/[C@@H]1O[C@H]2C(=O)C=C3C[C@@H](O)C[C@H]3[C@@H]2C=C1C [Compound 4, penostatin B]
